Test results taken from PubChem BioAssay (NCI).
“And” between values parts separate entries of the source, which are not always exact repeats. Equal entries are not always repeated.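 48-hour exposure; five concentrations; linearly interpolated endpoints. GI50 = concentration required for 50% inhibition of growth. TGI denotes the concentration required for complete inhibition of growth.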

Tested on: MDA-MB-468 breast
Assay: NCI-60 cell line screen, 48 h

## COc1cc(C2CC(c3cccc(Nc4ccnc5cc(Cl)ccc45)c3)=NN2C=O)cc(OC)c1OC (centres undefined)
  GI50: 293 nM
  TGI: 1070 nM

## C/C(=C1\SC(=NCc2cccs2)NC1=O)c1ccc2ncccc2c1
  GI50: 7130 nM
  TGI: > 25000 nM

## N#C/C(=C/NC(=S)NCc1ccccc1)C(N)=O
  GI50: > 100000 nM
  TGI: > 100000 nM

## O=C1Nc2ccccc2/C1=C\c1c[nH]c2ccc(Br)cc12
  GI50: 1620 nM
  TGI: 3760 nM

## Clc1ccc(CNc2ccc3nc(CCC4CCCCC4)[nH]c3c2)cc1
  GI50: 1570 nM
  TGI: 3470 nM

## CCn1c(-c2nonc2N)nc2c(C#CC(C)(C)O)nc(CN3CCCC3)cc21
  GI50: 4150 nM
  TGI: > 25000 nM

## O=c1[nH]cnc2c1ccn2C1OC(CO)C(O)C1O (centres undefined)
  GI50: 762 nM
  TGI: 3730 nM

## C#C[C@]1(O)CC[C@H]2[C@@H]3CC=C4c5sc(Nc6ccc(OC)nc6)nc5CC[C@]4(C)[C@H]3CC[C@@]21C
  GI50: 1460 nM
  TGI: 3530 nM

## O=c1oc2ccc(Br)cc2c(=O)n1-c1ccc(Br)cc1F
  GI50: 819 nM
  TGI: 4320 nM

## Cc1ncc(C(=O)Nc2ccc(CN3CCN(C)CC3)c(C(F)(F)F)c2)cc1C#Cc1c(N)ncc2ccc(F)cc12
  GI50: 2820 nM
  TGI: 12000 nM

## COc1ccc(NC(=O)Nc2ccccc2CNc2nc(Nc3ccc(OCCN4CCCC4)cc3)ncc2Cl)cc1
  GI50: 894 nM
  TGI: 1720 nM

## Cn1cc(C2=C(Oc3ccccc3)C(=O)NC2=O)c2ccccc21
  GI50: > 25000 nM
  TGI: > 25000 nM

## CCN1C(C)(C)CC(Oc2ccc(C(=O)Nc3ccc(NC(=O)Nc4cc(C(C)(C)C)on4)cc3)nc2)CC1(C)C
  GI50: 3210 nM
  TGI: 8950 nM

## O=C1C=CC=C[C@@H]2C(C3OCCO3)CC[C@H]12.[C-]#[O+].[C-]#[O+].[C-]#[O+].[Fe] (some centres undefined)
  GI50: 35200 nM
  TGI: > 100000 nM

## CN1N=C(N)c2cn(C3OC(COP(=O)(O)O)C(O)C3O)c3ncnc1c23 (centres undefined)
  GI50: 205 nM
  TGI: 3050 nM

## C=CCNCCN1C(=O)c2ccc3c4c(ccc(c24)C1=O)C(=O)N(CCNCC=C)C3=O
  GI50: 466 nM
  TGI: 1160 nM

## CCN(CC)c1ccc(/C=N/NC(=O)c2ccc(S(C)(=O)=O)cc2)c(O)c1
  GI50: 250 nM
  TGI: 1270 nM

## O=C(OCc1nc2nc(Cl)nc(N3CCOCC3)c2[nH]1)n1ccnc1
  GI50: 1850 nM
  TGI: 3540 nM

## Oc1c(I)cc(I)cc1CNCCN(Cc1ccccn1)Cc1ccccn1
  GI50: 1670 nM
  TGI: 4850 nM

## CS(=O)(=O)CCN(CC#N)Cc1ccc(-c2ccc3ncnc(Nc4ccc(OCc5cccc(F)c5)c(Cl)c4)c3c2)o1
  GI50: 76.7 nM
  TGI: 1090 nM

## COc1cc(-c2cc(/C=C3\C(=O)Nc4cc(Cl)ccc43)[nH]n2)cc(OC)c1OC
  GI50: 3170 nM
  TGI: 18200 nM

## COc1ccc(C2C(C#N)=C(N)Oc3c2sc2c(F)cccc32)cc1 (centres undefined)
  GI50: 1340 nM
  TGI: 10600 nM

## CSc1nc(N)cc(Oc2ccc(-c3nc(Nc4cccc(C(F)(F)F)c4)n[nH]3)cc2)n1
  GI50: 360 nM
  TGI: 2660 nM

## O=C1NC(=NCc2ccccc2Br)S/C1=C\c1ccc2ncccc2c1
  GI50: 4220 nM
  TGI: > 25000 nM

## Cc1ccccc1N1CCN(C2=C(Cl)C(=O)c3ncccc3C2=O)CC1
  GI50: 1600 nM
  TGI: 3180 nM

## COc1cccc2c1C(=O)c1c(O)c3c(c(O)c1C2=O)C[C@@](O)(C(C)=O)C[C@@H]3O[C@H]1C[C@H](N)[C@H](O)[C@H](C)O1
  GI50: 71.6 nM
  TGI: 221 nM

## Cn1cc(-c2nonc2-c2cn(C)c3ccc(F)cc23)c2ccccc21
  GI50: 515 nM
  TGI: > 84000 nM

## CCCN1CCN(c2ccc3nc(-c4ccc5nc(-c6ccc(C(F)(F)F)cc6)[nH]c5c4)[nH]c3c2)CC1
  GI50: 1780 nM
  TGI: 3390 nM

## C[C@H](NC(=O)c1c(N)nn2cccnc12)c1cc2cccc(C#Cc3cnn(C)c3)c2c(=O)n1-c1ccccc1
  GI50: 843 nM and 1460 nM
  TGI: 4550 nM and 9080 nM

## O=C(NCCCN1CCC(N2CCCCC2)CC1)C1=Cc2cc(Br)ccc2OC1
  GI50: 3150 nM
  TGI: 12600 nM

## O=C1C(Br)=CC2C1C1C3CCC3C2(Br)C12OCCO2 (centres undefined)
  GI50: 1370 nM
  TGI: 4210 nM

## Clc1ccc(Nc2nnc(CNc3ccccc3)c3ccccc23)cc1
  GI50: 1900 nM
  TGI: 11500 nM
